Experiment [1] relates to RAGE. Briefly: Reversal of LPS-induced RAGE expression in previously stimulated THP-1 macrophages (confocal imaging). The class given is cell-based, human. Particulars: additional 24 h, vs LPS alone. On the procedure: THP-1 monocytes were differentiated as described above 20. Upon differentiation, these cells were then incubated (48 h) with media containing low-dose (2 ng/mL) LPS as a chronic pro-inflammatory stimulus 21. Following incubation, JPT1a or JPT1 was added for final concentrations of 25, 5, and 1 μM 22, and cells were incubated an additional 24 h. Treatment with 2 ng/mL LPS alone served as a positive control, while treatment with an equivalent volume of buffer diluted into media served as the vehicle. Media was collected for later assessment of cytokines via ELISA as described above 23. Cells were fixed and stained for RAGE, phalloidin (cytoplasmic marker), and DAPI (nuclear marker) 24. […] 25 All multi-channel images were converted to TIFF file format via ImageJ64 software for quantitative image analysis using a custom subroutine written in Matlab™ software to obtain the average RAGE expression per volume of cells, and the data generated was assessed for statistical significance using GraphPad Prism 7.0 software 26.
After 48 hours, half of the supernatant was removed, treated with JPT1a (dashed-grey) at final concentrations of 25, 5, 1, and 0 μM (positive control), and then added back to respective samples. […] Images were analyzed via custom MATLAB™ subroutine to determine the average quantity of RAGE present within a given volume of cells. […]

The target of experiment [2] is T1, E-cadherin (Homo sapiens, UniProt P12830).
T1 sequence (P12830 155-882): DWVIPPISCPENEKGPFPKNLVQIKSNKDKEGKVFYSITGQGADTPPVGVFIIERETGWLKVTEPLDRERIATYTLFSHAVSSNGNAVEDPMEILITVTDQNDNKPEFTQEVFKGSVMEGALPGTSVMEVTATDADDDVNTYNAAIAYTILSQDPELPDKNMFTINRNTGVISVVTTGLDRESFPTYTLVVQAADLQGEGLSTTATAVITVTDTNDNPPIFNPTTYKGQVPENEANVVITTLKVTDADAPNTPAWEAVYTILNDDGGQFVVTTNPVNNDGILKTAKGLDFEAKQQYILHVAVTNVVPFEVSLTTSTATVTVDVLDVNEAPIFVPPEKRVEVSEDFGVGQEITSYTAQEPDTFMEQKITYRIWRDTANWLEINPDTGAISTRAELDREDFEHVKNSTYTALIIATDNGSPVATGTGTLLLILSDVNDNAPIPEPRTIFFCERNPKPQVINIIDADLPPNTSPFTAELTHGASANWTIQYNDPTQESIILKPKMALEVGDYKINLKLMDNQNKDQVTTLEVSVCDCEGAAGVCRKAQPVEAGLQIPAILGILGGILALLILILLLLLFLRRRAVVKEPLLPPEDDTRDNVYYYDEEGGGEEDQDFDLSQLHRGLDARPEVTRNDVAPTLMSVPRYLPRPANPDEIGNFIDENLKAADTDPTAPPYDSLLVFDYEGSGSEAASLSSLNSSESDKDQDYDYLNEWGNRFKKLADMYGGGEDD
Briefly: E-cadherin binding to JPT1a-coated 96-well plates. Particulars: plates coated with 500 nM JPT1a; E-cadherin 1 to 500 nM. As for the experimental part: (§1) As shown in FIGS. 7A-7D, 96-well plates coated with 500 nM JPT1a were treated with concentrations of RAGE (FIG. 7A) or E-cadherin (FIG. 7B) ranging from 1 to 500 nM. Values are reported as the average concentration of bound protein determined from all experiments. Error bars indicate SEM, n=2-5. […] In FIG. 7D, 96-well plates coated with 500 nM JPT1 were treated with concentrations of RAGE ranging from 1 to 350 nM.

The target in experiment [3] is RAGE (Homo sapiens, UniProt Q15109). Put plainly: RAGE binding to peptoid-coated 96-well plates, Scatchard plot. Particulars: plates coated with 500 nM peptoid; JPT1a n=3 average, JPT1 n=1. As for the experimental part: as §1
Sequence of RAGE (Homo sapiens, UniProt Q15109) (Q15109 23-404): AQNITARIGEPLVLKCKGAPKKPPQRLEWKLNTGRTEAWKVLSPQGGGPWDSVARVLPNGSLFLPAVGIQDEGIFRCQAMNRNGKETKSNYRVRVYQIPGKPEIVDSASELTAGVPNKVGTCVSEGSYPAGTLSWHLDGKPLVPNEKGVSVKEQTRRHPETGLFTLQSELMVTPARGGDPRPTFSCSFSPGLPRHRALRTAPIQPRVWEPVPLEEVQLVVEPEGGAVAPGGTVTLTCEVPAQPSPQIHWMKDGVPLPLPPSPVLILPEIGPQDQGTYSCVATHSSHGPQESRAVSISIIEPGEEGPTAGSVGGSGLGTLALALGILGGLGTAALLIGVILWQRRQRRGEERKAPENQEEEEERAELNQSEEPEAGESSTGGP
The subject of experiment [4] is RAGE. Briefly: RAGE upregulation in THP-1 macrophages co-incubated with peptoid and low-dose LPS (confocal imaging). Particulars: 3 days. The class given is cell-based, human. As for the experimental part:
THP-1 monocytes were differentiated into macrophages through exposure to phorbol 12-myristate 13-acetate (PMA) for three days prior to experimentation 10. […] Upon differentiation, these cells were then incubated (3 days) with media containing JPT1a (50, 10, or 2 μM) alone or JPT1a (50, 10, or 2 μM) in the presence of low-dose (2 ng/mL) lipopolysaccharide (LPS) as a chronic pro-inflammatory stimulus 11. Treatment with 2 ng/mL LPS alone served as a positive control, while treatment with an equivalent volume of buffer diluted into media served as the vehicle. Cellular supernatant was harvested on day 3 12; these samples were immediately centrifuged at 1200 rpm for 10 min at 25° C. to remove any cells or debris. The top 80% of this volume was subsequently removed and stored at −80° C. for later assessment of cytokines via ELISA. Cells were fixed and stained for RAGE, phalloidin (cytoplasmic marker), and DAPI (nuclear marker) 13. Each channel was imaged with a Zeiss LSM 510 META Confocal Scanning Laser Microscope using a plan-neofluar 40×/1.3 oil DIC immersion objective; three of these multi-channel images were obtained from each slide in each experiment 14. All multi-channel images were converted to TIFF file format via ImageJ64 software for quantitative image analysis using a custom subroutine written in Matlab™ software to obtain the average RAGE expression per volume of cells, and the data generated was assessed for statistical significance using GraphPad Prism 7.0 software 15.
Images acquired via confocal microscopy were analyzed via custom MATLAB™ subroutine to determine the average quantity of RAGE present within a given volume of cells. Results within each experiment are normalized to the positive control (2 ng/mL LPS alone), indicated by the dashed line at 1. Significance relative to positive control is indicated as ** p<0.01. Error bars indicate SEM, n=4.
Images acquired via confocal microscopy were analyzed via custom MATLAB™ subroutine to determine the average quantity of RAGE present within a given volume of cells. Results within each experiment are normalized to the positive control (2 ng/mL LPS alone), indicated by the dashed line at 1.0. Error bars indicate SEM, n=2.

Experimental findings from patent publication US11197908B2, “Peptoids and methods for attenuating inflammatory response” (THE BOARD OF TRUSTEES OF THE UNIVERSITY OF ARKANSAS, priority 2018, dated 2021) are described below.

The term Kd denotes the equilibrium constant for the complex coming apart.

Where a SMILES comes first, the peptide text is derived from it. [ ]: non-standard residue; d: D form. N(1S-Me-propyl)Gly = CC[C@H](C)NCC(=O)O; Nspe = C[C@H](NCC(=O)O)c1ccccc1; Nlys = NCCCCNCC(=O)O

Turning to `CC[C@H](C)N(CC(=O)N(CC(=O)N(CC(=O)N(CC(=O)N(CC(=O)N(CC(=O)N(CC(N)=O)[C@@H](C)c1ccccc1)[C@@H](C)c1ccccc1)[C@@H](C)CC)[C@@H](C)c1ccccc1)[C@@H](C)c1ccccc1)[C@@H](C)CC)C(=O)CNCCCCN` [JPT1a] (H-[Nlys][N(1S-Me-propyl)Gly][N(1S-Me-propyl)Gly][Nspe][Nspe][N(1S-Me-propyl)Gly][Nspe][Nspe]-NH2), the “reversal in LPS-induced RAGE expression” value in experiment [1] (5 μM added after 48 h of 2 ng/mL LPS) and in experiment [1] (25 μM added after 48 h of 2 ng/mL LPS) was “significant reversal” throughout. Moreover, the “binding to E-cadherin” value in experiment [2] is “absence of binding”. For the same compound, in experiment [3], binding was characterised by a dissociation constant (Kd) of 0.0518 ± 0.0073 µM. Further, the “upregulation in RAGE expression in the presence of LPS” value in experiment [4] (peptoid 50, 10 or 2 μM with 2 ng/mL LPS, normalized to LPS alone) was “reduced in a dose-dependent and significant manner”. The “expression of RAGE, peptoid alone” value in experiment [4] (peptoid alone (no LPS), relative to the control) is on record as “does not provoke significant response or upregulation”.
